Source: the NIST ThermoML archive (doi:10.1016/j.fluid.2005.03.014)
Numbers after ± are expanded uncertainties.

Key:
[1] = refractive index (Na D-line) (dimensionless); settings: 298.15 K; 101.33 kPa; Liquid; Standard Abbe refractometry
[2] = Liquid; for mass density: 298.15 K, 101.33 kPa

CC(C)CO [2-methyl-1-propanol]
refractive index [1]: 1.3937 ± 0.0007
mass density [2]: 797.83 ± 0.61 kg/m3

CC(=O)OCC(C)C [2-methylpropyl ethanoate]
refractive index [1]: 1.3876 ± 0.0008
mass density [2]: 866.12 ± 0.62 kg/m3

CN(C)C=O [dimethylformamide]
refractive index [1]: 1.4265 ± 0.0007
mass density [2]: 948.72 ± 0.27 kg/m3
vapor or sublimation pressure ([2]; 345.45 K): 6.3 ± 0.23 kPa
vapor or sublimation pressure ([2]; 350.38 K): 7.81 ± 0.23 kPa
vapor or sublimation pressure ([2]; 354.51 K): 9.27 ± 0.24 kPa
vapor or sublimation pressure ([2]; 359.05 K): 11.16 ± 0.24 kPa
vapor or sublimation pressure ([2]; 362.74 K): 12.93 ± 0.24 kPa
vapor or sublimation pressure ([2]; 366.7 K): 15.07 ± 0.24 kPa
vapor or sublimation pressure ([2]; 370.69 K): 17.53 ± 0.24 kPa
vapor or sublimation pressure ([2]; 374.89 K): 20.48 ± 0.24 kPa
vapor or sublimation pressure ([2]; 379.24 K): 23.95 ± 0.24 kPa
vapor or sublimation pressure ([2]; 382.97 K): 27.32 ± 0.25 kPa
vapor or sublimation pressure ([2]; 386.75 K): 31.1 ± 0.25 kPa
vapor or sublimation pressure ([2]; 390.07 K): 34.78 ± 0.25 kPa
vapor or sublimation pressure ([2]; 393.2 K): 38.56 ± 0.26 kPa
vapor or sublimation pressure ([2]; 396.61 K): 43.04 ± 0.26 kPa
vapor or sublimation pressure ([2]; 399.91 K): 47.82 ± 0.26 kPa
vapor or sublimation pressure ([2]; 403.1 K): 52.73 ± 0.27 kPa
vapor or sublimation pressure ([2]; 405.94 K): 57.53 ± 0.27 kPa
vapor or sublimation pressure ([2]; 408.79 K): 62.66 ± 0.27 kPa
vapor or sublimation pressure ([2]; 411.23 K): 67.37 ± 0.28 kPa
vapor or sublimation pressure ([2]; 413.35 K): 71.68 ± 0.28 kPa
vapor or sublimation pressure ([2]; 415.66 K): 76.65 ± 0.29 kPa
vapor or sublimation pressure ([2]; 417.84 K): 81.58 ± 0.29 kPa
vapor or sublimation pressure ([2]; 419.86 K): 86.33 ± 0.29 kPa
vapor or sublimation pressure ([2]; 421.87 K): 91.37 ± 0.3 kPa
vapor or sublimation pressure ([2]; 423.7 K): 96.06 ± 0.3 kPa
vapor or sublimation pressure ([2]; 425.6 K): 101.2 ± 0.31 kPa
